Source: patent US8916551B2, “Heterocyclic compound and use thereof” (Takeda Pharmaceutical Company Limited, priority 2010, dated 2014)

The compounds below were run against T1, AMPA receptor (human GluR1 flip/stargazin expressed in CHO-K1 cells) (Homo sapiens, UniProt P42261) (assay: AMPA receptor function enhancing activity using calcium influx as index). Conditions: test compound 30 μM with 3 mM glutamic acid, change in fluorescence level in 3 min, 100% = 3 mM glutamic acid + 300 μM cyclothiazide, 0% = 3 mM glutamic acid only.
T1 construct: expressed in transfected cells; host or cells: CHO-K1
Format: cell-based
Excerpt: Human GluR1 flip cDNA was amplified by PCR using forward primer […] (SEQ ID NO: 1) and reverse primer […] (SEQ ID NO: 2) artificially synthesized using human brain-derived cDNA (BD Bio science) as a template. The amplified product was digested with restriction enzymes EcoRI, NotI (TAKARA SHUZO CO. LTD.), and incorporated into the same site of pcDNA3.1(+) (Invitrogen) to construct pcDNA3.1(+)/human GluR1 flip gene. Human stargazin cDNA was amplified by PCR using forward primer […] (SEQ ID NO: 3) and reverse primer […] (SEQ ID NO: 4) artificially synthesized using human hippocampus cDNA as a template. The amplified product was digested with restriction enzymes XhoI, BamHI (TAKARA SHUZO CO. LTD.), and incorporated into the same site of pcDNA3.1(−) (Invitrogen) to construct pcDNA3.1 Zeo(−)/human stargazin gene.
CHO-K1 cells passaged in a culture medium (Ham's F12 medium (Invitrogen) added with 10% inactivated fetal bovine serum (Morgate) and penicillin, streptomycin (Invitrogen)) were detached with 0.05% trypsin, 0.53 mM EDTA (Invitrogen) diluted with D-PBS(−). The detached cells were suspended in a culture medium, and recovered by a centrifugation operation at 1,000 rpm. The recovered cells were suspended again in D-PBS(−), and added to a 0.4 cm electroporation cuvette (BioRad). pcDNA3.1(+)/human GluR1 flip gene (5 μg) and pcDNA3.1 Zeo(−)/human stargazin gene (15 μg) were added, and the mixture was introduced into CHO-K1 cells using Gene Pulser II (BioRad) under the conditions of 950 μFd, […]. The introduced cells were cultured overnight in a culture medium and, the next day, plated in a 96 well plate at 250 cells/well using a selection medium (culture medium added with Zeocin (Invitrogen) to 250 μg/mL). Clones showing drug resistance were selected, and GluR1 flip/stargazin expressing clones were selected by an assay method using calcium influx as an index as shown below.
CHO-K1/GluR1 flip/stargazin expressing cells were plated on a 96 well black transparent bottom plate (Costar) at 2×10^4 cells/well, and cultured in a 37° C., CO2 incubator (SANYO Electric Co., Ltd.) for 2 days. The medium in the cell plate was removed, and assay buffer A (D-MEM (Invitrogen), 0.1% BSA (Serogical Protein), 20 mM HEPES (Invitrogen)) was added at 50 μL/well. A calcium indicator (Calcium 4 Assay Kit, Invitrogen) added with 2.5 mM probenecid (Invitrogen) was added at 50 μL/well and the well was left standing in 37° C., CO2 incubator for 1 hr. The cell plate was set in CellLux (PerkinElmer), a mixture (50 μL) of 9 mM glutamic acid diluted with assay buffer B (HBSS (Invitrogen), 0.1% BSA, 20 mM HEPES) (final concentration 3 mM) and a test compound (test compound concentration 30 μM) was added, and the amount of change in fluorescence level in 3 min was measured. In the definition here, the amount of change in fluorescence level of well added with glutamic acid at final concentration 3 mM and 300 μM cyclothiazide (TOCRIS) is 100%, the amount of change in fluorescence level of well added only with glutamic acid at final concentration 3 mM is 0%, and the compound activity was calculated according to the following formula. activity(%)=(X−C)/(T−C)×100 T: amount of change in fluorescence level of well added with glutamic acid at final concentration 3 mM and 300 μM cyclothiazide C: amount of change in fluorescence level of well added only with glutamic acid at final concentration 3 mM X: amount of change in fluorescence level of well added with test compound

T1 sequence (P42261 19-906 isoform P42261-2 limits assumed): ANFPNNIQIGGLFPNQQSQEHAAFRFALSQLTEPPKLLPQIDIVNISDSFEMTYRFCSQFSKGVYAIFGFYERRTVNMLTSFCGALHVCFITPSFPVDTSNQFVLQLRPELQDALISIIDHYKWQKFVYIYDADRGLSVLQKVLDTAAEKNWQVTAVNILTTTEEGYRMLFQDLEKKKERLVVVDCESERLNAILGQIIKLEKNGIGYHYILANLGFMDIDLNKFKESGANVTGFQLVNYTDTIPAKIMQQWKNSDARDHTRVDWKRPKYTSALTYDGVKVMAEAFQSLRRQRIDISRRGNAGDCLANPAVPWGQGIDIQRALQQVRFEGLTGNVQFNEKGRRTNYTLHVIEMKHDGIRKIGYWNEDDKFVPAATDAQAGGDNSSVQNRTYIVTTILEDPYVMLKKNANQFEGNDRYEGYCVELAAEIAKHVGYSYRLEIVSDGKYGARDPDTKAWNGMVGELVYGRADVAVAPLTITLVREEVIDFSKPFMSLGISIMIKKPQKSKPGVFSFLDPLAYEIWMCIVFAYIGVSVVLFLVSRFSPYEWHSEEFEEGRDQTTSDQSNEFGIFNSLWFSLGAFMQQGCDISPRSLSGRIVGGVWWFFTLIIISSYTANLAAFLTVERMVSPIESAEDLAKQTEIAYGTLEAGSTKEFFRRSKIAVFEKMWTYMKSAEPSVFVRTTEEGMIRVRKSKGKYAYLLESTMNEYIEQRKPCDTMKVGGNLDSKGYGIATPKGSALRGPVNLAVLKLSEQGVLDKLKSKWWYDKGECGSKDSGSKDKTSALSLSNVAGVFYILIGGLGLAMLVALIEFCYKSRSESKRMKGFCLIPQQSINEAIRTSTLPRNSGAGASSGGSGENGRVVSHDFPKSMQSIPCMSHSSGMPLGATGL
T1 sequence (Q9Y698 whole entry partner): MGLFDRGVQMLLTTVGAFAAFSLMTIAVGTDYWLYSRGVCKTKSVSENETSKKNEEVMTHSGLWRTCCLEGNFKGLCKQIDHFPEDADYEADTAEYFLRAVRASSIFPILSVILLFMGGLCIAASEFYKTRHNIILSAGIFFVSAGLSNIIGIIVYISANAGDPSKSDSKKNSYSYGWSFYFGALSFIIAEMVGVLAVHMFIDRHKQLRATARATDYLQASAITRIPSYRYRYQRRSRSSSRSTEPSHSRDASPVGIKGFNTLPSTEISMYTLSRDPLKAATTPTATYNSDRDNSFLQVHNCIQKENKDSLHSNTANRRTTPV

In order of rising “activity (%)” value:
1. O=S1(=O)CCN2C=CC=C(C3CCC(c4ccccc4)CC3)C2=N1 (centres unmarked) [Example 185, 9-(4-phenylcyclohexyl)-3,4-dihydropyrido[2,1-c][1,2,4]thiadiazine 2,2-dioxide]  36%
2. O=S1(=O)CCN2C=CC=C(c3ccc(C(F)(F)c4ccccc4)cc3)C2=N1 [Example 162, 9-{4-[difluoro(phenyl)methyl]phenyl}-3,4-dihydropyrido[2,1-c][1,2,4]thiadiazine 2,2-dioxide]  56%
3. CCc1ccc(Oc2ccc(C3CCCN4CCS(=O)(=O)N=C34)cc2)cc1 (centres unmarked) [Example 161, 9-[4-(4-ethylphenoxy)phenyl]-3,4,6,7,8,9-hexahydropyrido[2,1-c][1,2,4]thiadiazine 2,2-dioxide]  57%
4. COc1cc(Oc2ccc(C3CCCN4CCS(=O)(=O)N=C34)cc2)ccc1Cl (centres unmarked) [Example 155, 9-[4-(4-chloro-3-methoxyphenoxy)phenyl]-3,4,6,7,8,9-hexahydropyrido[2,1-c][1,2,4]thiadiazine 2,2-dioxide]  63%
5. COc1cc(Oc2ccc(C3CC(C)CN4CCS(=O)(=O)N=C34)cc2)ccc1F (centres unmarked) [Example 164, 9-[4-(4-fluoro-3-methoxyphenoxy)phenyl]-7-methyl-3,4,6,7,8,9-hexahydropyrido[2,1-c][1,2,4]thiadiazine 2,2-dioxide]  69%
6. O=S1(=O)CCN2CCCC(c3ccc(C(F)(F)F)cc3)C2=N1 (centres unmarked) [Example 177, 9-[4-(trifluoromethyl)phenyl]-3,4,6,7,8,9-hexahydropyrido[2,1-c][1,2,4]thiadiazine 2,2-dioxide]  69%
7. O=S1(=O)CCN2CCCC(c3ccc(OC(F)(F)F)cc3)C2=N1 (centres unmarked) [Example 179, 9-[4-(trifluoromethoxy)phenyl]-3,4,6,7,8,9-hexahydropyrido[2,1-c][1,2,4]thiadiazine 2,2-dioxide]  69%
8. O=S1(=O)CCN2CCCC(c3ccc(Oc4ccc(Br)c(C(F)(F)F)c4)cc3)C2=N1 (centres unmarked) [Example 142, 9-{4-[4-bromo-3-(trifluoromethyl)phenoxy]phenyl}-3,4,6,7,8,9-hexahydropyrido[2,1-c][1,2,4]thiadiazine 2,2-dioxide]  70%
9. CC1=CN2CCS(=O)(=O)N=C2C(c2ccc(OC3CCCCC3)cc2)=N1 [Example 180, 9-[4-(cyclohexyloxy)phenyl]-7-methyl-3,4-dihydropyrazino[2,1-c][1,2,4]thiadiazine 2,2-dioxide]  70%
10. O=S1(=O)CCN2C=CC=C(c3ccc(Oc4cccc(C(F)(F)F)c4)cc3)C2=N1 [Example 187, 9-{4-[3-(trifluoromethyl)phenoxy]phenyl}-3,4-dihydropyrido[2,1-c][1,2,4]thiadiazine 2,2-dioxide]  72%
11. O=S1(=O)CCN2CCCC(c3ccc(C(F)(F)c4ccccc4)cc3)C2=N1 (centres unmarked) [Example 163, 9-{4-[difluoro(phenyl)methyl]phenyl}-3,4,6,7,8,9-hexahydropyrido[2,1-c][1,2,4]thiadiazine 2,2-dioxide]  74%
12. COc1cc(Oc2ccc(C3=CC=CN4CCS(=O)(=O)N=C34)cc2)ccc1Cl [Example 154, 9-[4-(4-chloro-3-methoxyphenoxy)phenyl]-3,4-dihydropyrido[2,1-c][1,2,4]thiadiazine 2,2-dioxide]  75%
13. Cc1cc(F)ccc1Oc1ccc(C2CCCN3CCS(=O)(=O)N=C23)cc1 (centres unmarked) [Example 144, 9-[4-(4-fluoro-2-methylphenoxy)phenyl]-3,4,6,7,8,9-hexahydropyrido[2,1-c][1,2,4]thiadiazine 2,2-dioxide]  76%
14. CC(F)(F)c1cccc(Oc2ccc(C3CCCN4CCS(=O)(=O)N=C34)cc2)c1 (centres unmarked) [Example 158, 9-{4-[3-(1,1-difluoroethyl)phenoxy]phenyl}-3,4,6,7,8,9-hexahydropyrido[2,1-c][1,2,4]thiadiazine 2,2-dioxide]  76%
15. O=S1(=O)CCN2CCC[C@@H](c3ccc(Oc4ccc(Cl)cc4)cc3)C2=N1 [Example 149, (9S)-9-[4-(4-chlorophenoxy)phenyl]-3,4,6,7,8,9-hexahydropyrido[2,1-c][1,2,4]thiadiazine 2,2-dioxide]  77%
16. O=S1(=O)CCN2CCC[C@@H](c3ccc(Oc4cc(C(F)(F)F)ccc4Cl)cc3)C2=N1 [Example 160, (9S)-9-{4-[2-chloro-5-(trifluoromethyl)phenoxy]phenyl}-3,4,6,7,8,9-hexahydropyrido[2,1-c][1,2,4]thiadiazine 2,2-dioxide]  78%
17. CC(F)(F)c1ccc(C2CCCN3CCS(=O)(=O)N=C23)cc1 (centres unmarked) [Example 174, 9-[4-(1,1-difluoroethyl)phenyl]-3,4,6,7,8,9-hexahydropyrido[2,1-c][1,2,4]thiadiazine 2,2-dioxide]  79%
18. O=S1(=O)CCN2CCCC(c3ccc(Oc4ccc(Cl)c(Cl)c4)cc3)C2=N1 (centres unmarked) [Example 152, 9-[4-(3,4-dichlorophenoxy)phenyl]-3,4,6,7,8,9-hexahydropyrido[2,1-c][1,2,4]thiadiazine 2,2-dioxide]  80%
19. Cc1cc(F)ccc1Oc1ccc(C2CCCN3CCS(=O)(=O)N=C23)cc1 (centres unmarked) [Example 145, 9-[4-(4-fluoro-2-methylphenoxy)phenyl]-3,4,6,7,8,9-hexahydropyrido[2,1-c][1,2,4]thiadiazine 2,2-dioxide]  84%
20. O=S1(=O)CCN2CCC[C@@H](c3ccc(Oc4cccc(Cl)c4)cc3)C2=N1 [Example 203, (9S)-9-[4-(3-chlorophenoxy)phenyl]-3,4,6,7,8,9-hexahydropyrido[2,1-c][1,2,4]thiadiazine 2,2-dioxide]  85%
21. CC1CC(c2ccc(Oc3cccc(C(C)(F)F)c3)cc2)C2=NS(=O)(=O)CCN2C1 (centres unmarked) [Example 171, 9-{4-[3-(1,1-difluoroethyl)phenoxy]phenyl}-7-methyl-3,4,6,7,8,9-hexahydropyrido[2,1-c][1,2,4]thiadiazine 2,2-dioxide]  87%
22. CC(F)(F)c1cccc(Oc2ccc(C3=CC=CN4CCS(=O)(=O)N=C34)cc2)c1 [Example 156, 9-{4-[3-(1,1-difluoroethyl)phenoxy]phenyl}-3,4-dihydropyrido[2,1-c][1,2,4]thiadiazine 2,2-dioxide]  90%
23. CC(F)(F)c1cccc(Oc2ccc(C3CCCN4CCS(=O)(=O)N=C34)cc2)c1 (centres unmarked) [Example 159, 9-{4-[3-(1,1-difluoroethyl)phenoxy]phenyl}-3,4,6,7,8,9-hexahydropyrido[2,1-c][1,2,4]thiadiazine 2,2-dioxide]  90%

Same assay, conditions: test compound 30 μM with glutamic acid final 3 mM, change in fluorescence in 3 min, 100% = 3 mM glutamic acid + 300 μM cyclothiazide, 0% = 3 mM glutamic acid only

In order of falling “activity (%)” value:
1. O=S1(=O)CCN2CCCC(c3ccc(Oc4ccc5c(c4)OCC5)cc3)C2=N1 (centres unmarked) [Example 141, 9-[4-(2,3-dihydro-1-benzofuran-6-yloxy)phenyl]-3,4,6,7,8,9-hexahydropyrido[2,1-c][1,2,4]thiadiazine 2,2-dioxide]  80%
2. Cc1ccc(C(F)(F)c2ccc(C3=CC=CN4CCS(=O)(=O)N=C34)cc2)cc1 [Example 136, 9-{4-[difluoro(4-methylphenyl)methyl]phenyl}-3,4-dihydropyrido[2,1-c][1,2,4]thiadiazine 2,2-dioxide]  77%
3. Cc1ccc(C(F)(F)c2ccc(C3CCCN4CCS(=O)(=O)N=C34)cc2)cc1 (centres unmarked) [Example 138, 9-{4-[difluoro(4-methylphenyl)methyl]phenyl}-3,4,6,7,8,9-hexahydropyrido[2,1-c][1,2,4]thiadiazine 2,2-dioxide]  71%
